Experimental data published in ChEMBL document CHEMBL1201862, “PubChem BioAssay data set” (2004).
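In this assay, cells in 96-well plates receive the compound at five concentrations for 48 hours. Endpoints are linearly interpolated between the surrounding concentrations. GI50 is the concentration that inhibits growth by half.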 Active and inactive are the calls of the source. Rule as the data show it: active = GI50 up to about 1.1 µM and inactive = higher.

Key:
Assay in all cases: growth of human tumour cells (NCI), 48 h
BT-549 = system: BT-549
HCT-116 = system: HCT-116
HOP-92 = system: HOP-92
Hs-578T = system: Hs-578T
M14 = system: M14
MCF7 = system: MCF7
MDA-MB-435 = system: MDA-MB-435
NCI-H226 = system: NCI-H226
NCI-H23 = system: NCI-H23
NCI-H522 = system: NCI-H522
OVCAR-3 = system: OVCAR-3
OVCAR-4 = system: OVCAR-4
OVCAR-5 = system: OVCAR-5
SF-539 = system: SF-539
SK-MEL-2 = system: SK-MEL-2
SNB-19 = system: SNB-19
SW-620 = system: SW-620
T47D = system: T47D
U-251 = system: U-251
UACC-62 = system: UACC-62

SMILES | GI50 (BT-549) | GI50 (HCT-116) | GI50 (HOP-92) | GI50 (Hs-578T) | GI50 (M14) | GI50 (MCF7) | GI50 (MDA-MB-435) | GI50 (NCI-H226) | GI50 (NCI-H23) | GI50 (NCI-H522) | GI50 (OVCAR-3) | GI50 (OVCAR-4) | GI50 (OVCAR-5) | GI50 (SF-539) | GI50 (SK-MEL-2) | GI50 (SNB-19) | GI50 (SW-620) | GI50 (T47D) | GI50 (U-251) | GI50 (UACC-62)
COc1ccc(O)c(/C=N/NC(=S)N2CCCCC2)c1 | 3.77 µM (inactive) | 2.3 µM (inactive) | 5.18 µM (inactive) | 31 µM (inactive) | 0.592 µM (active) | 7.96 µM (inactive) | 6.07 µM (inactive) | 1.07 µM (active) | 2.15 µM (inactive) | 0.948 µM (active) | 0.319 µM (active) | 4.59 µM (inactive) | 5.9 µM (inactive) | 3.77 µM (inactive) | 25.1 µM (inactive) | 4.51 µM (inactive) | 2.88 µM (inactive) | 6.71 µM (inactive) | 1.85 µM (inactive) | 2.54 µM (inactive)
O=C(OCc1ccccc1)N(CCCCN(CCCNC(=O)C(F)(F)F)C(=O)OCc1ccccc1)CCCNC(=O)C(F)(F)F | > 100 µM (inactive) | > 100 µM (inactive) | > 100 µM (inactive) | > 100 µM (inactive) | > 100 µM (inactive) | > 100 µM (inactive) | > 100 µM (inactive) | > 100 µM (inactive) | > 100 µM (inactive) | 2.94 µM (inactive) | > 100 µM (inactive) | > 100 µM (inactive) | > 100 µM (inactive) | > 100 µM (inactive) | > 100 µM (inactive) | 4.2 µM (inactive) | > 100 µM (inactive) | > 100 µM (inactive) | > 100 µM (inactive) | > 100 µM (inactive)
O=C1N(C2CCCCC2)C(=O)N1C1CCCCC1 | 0.0272 µM (active) | 0.113 µM (active) | 0.149 µM (active) | 0.0409 µM (active) | 1.24 µM (inactive) | 0.723 µM (active) | 2.08 µM (inactive) | 0.416 µM (active) | 0.83 µM (active) | 0.328 µM (active) | 1.87 µM (inactive) | 1.68 µM (inactive) | 1.83 µM (inactive) | 1.22 µM (inactive) | 1.49 µM (inactive) | 1.46 µM (inactive) | 1.95 µM (inactive) | 0.56 µM (active) | 0.388 µM (active) | 0.21 µM (active)
O=C(O)CCC(NC(=O)c1ccc(Nc2nc3ccc(C(F)(F)F)cc3nc2C(=O)O)cc1)C(=O)O (configuration not stated) | > 100 µM (inactive) | > 100 µM (inactive) | > 100 µM (inactive) | > 100 µM (inactive) | > 100 µM (inactive) | > 100 µM (inactive) | > 100 µM (inactive) | > 100 µM (inactive) | > 100 µM (inactive) | > 100 µM (inactive) | 69.8 µM (inactive) |  | > 100 µM (inactive) | > 100 µM (inactive) | > 100 µM (inactive) | > 100 µM (inactive) | > 100 µM (inactive) | > 100 µM (inactive) | > 100 µM (inactive) | > 100 µM (inactive)
C=C1c2nc3ccccc3n2C=C(c2ccc(OC)cc2)N1c1ccc(OCCN2CCOCC2)cc1 | 49.2 µM (inactive) | 21.9 µM (inactive) | > 40.9 µM (inactive) | 4.7 µM (inactive) | 9.73 µM (inactive) | 12.3 µM (inactive) | 24.3 µM (inactive) | > 100 µM (inactive) | > 25.2 µM (inactive) | 1.43 µM (inactive) | > 100 µM (inactive) | 11.1 µM (inactive) | > 100 µM (inactive) | > 100 µM (inactive) | 18.5 µM (inactive) | > 100 µM (inactive) | 44.3 µM (inactive) | > 100 µM (inactive) | > 93.3 µM (inactive) | 20.4 µM (inactive)
CN(C)Cc1cc(C(=O)O)cc(CN(C)C)c1O | > 100 µM (inactive) | > 100 µM (inactive) | > 100 µM (inactive) | > 100 µM (inactive) | > 100 µM (inactive) | > 100 µM (inactive) | > 100 µM (inactive) | > 100 µM (inactive) | > 100 µM (inactive) | > 100 µM (inactive) | > 100 µM (inactive) | > 100 µM (inactive) | > 100 µM (inactive) |  | > 100 µM (inactive) | > 100 µM (inactive) | > 100 µM (inactive) | > 100 µM (inactive) | > 100 µM (inactive) | > 100 µM (inactive)
CCOc1cc(C2CC(c3ccc(NS(=O)(=O)c4cc([N+](=O)[O-])ccc4C)cc3)=NN2)ccc1O (configuration not stated) | 21.1 µM (inactive) | 20.4 µM (inactive) | 45 µM (inactive) | 65 µM (inactive) | 19 µM (inactive) | 21.5 µM (inactive) | 28.1 µM (inactive) | 43 µM (inactive) | 28 µM (inactive) | 26.9 µM (inactive) | 15.3 µM (inactive) | 22.8 µM (inactive) | 32.1 µM (inactive) | 45.7 µM (inactive) | 21.7 µM (inactive) | 30.3 µM (inactive) | 32.8 µM (inactive) | 27.9 µM (inactive) |  | 14 µM (inactive)
